Data from US9827260B2, “Composition for buffered aminoalkyl glucosaminide phosphate compounds and its use for enhancing an immune response” (GlaxoSmithKline Biologicals s.a., priority 2013, dated 2017).

Tests used:
[1] = Accelerated stability test (forced degradation), 14 days at 40° C; conditions: both buffers at pH=7.0, FIG. 5
[2] = Sonication processing time to achieve a clear solution of CRX-601 buffered formulations; assay type: physicochemical
Procedure: (§1) CRX-601 was formulated in the 10 mM HEPES buffered at pH=7.0 at 2 mg/mL target concentration by weighing 3.99 mg of CRX-601 and adding 1.877 mL of 10 mM HEPES followed by ultrasonication in a water bath sonicator. After 25 minutes the solution was visibly clear, but the sonication was continued since the other CRX-601 formulations with the other buffers employed herein had not yet achieved similar visual appearance. This was done because the goal was to subject each CRX-601 buffered formulation to the same amount of processing energy.
as §1, with “pH=8.0” for “pH=7.0”
Each of the buffer solutions was then sonciated to reduce the particle size to allow for sterile filtration.

Row | stability of the AGP in HEPES as compared against phosphate buffer [1] | sonication time until solution visibly clear ([2]; 2 mg/mL in 10 mM HEPES at pH=7.0, water bath sonicator) [min] | sonication time until solution visibly clear ([2]; 2 mg/mL in 10 mM HEPES at pH=8.0, water bath sonicator) [min] | SMILES
1 | enhanced stability |  |  | CCCCCCCCCCC[C@H](CC(=O)N[C@H]1[C@H](OC[C@H](NC(=O)C[C@@H](CCCCCCCCCCC)OC(=O)CCCCCCCCC)C(=O)O)O[C@H](CO)[C@@H](OP(=O)(O)O)[C@@H]1OC(=O)C[C@@H](CCCCCCCCCCC)OC(=O)CCCCCCCCC)OC(=O)CCCCCCCCC [CRX-527]
2 | enhanced stability | 25 | 25 | CCCCCCCCCCC[C@H](CC(=O)N[C@H]1[C@H](OC[C@H](NC(=O)C[C@@H](CCCCCCCCCCC)OCCCCCCCCCC)C(=O)O)O[C@H](CO)[C@@H](OP(=O)(O)O)[C@@H]1OC(=O)C[C@@H](CCCCCCCCCCC)OCCCCCCCCCC)OCCCCCCCCCC [CRX-601]
